Laboratory results as given in ChEMBL document CHEMBL5724914, “Linking interpersonal differences in gut microbiota composition and drug biotransformation activity” (2024).

Test: (§1) The drug is tested on Z-001 corresponding to mouse gut metagenome with ENA study accession number: PRJEB37062 and ENA sample accession number: ERS12561801 for biotransformation under anaerobic condition. The drug concentrations were measured over 9 timepoints collected between 0 and 24 hours of incubation by liquid-chromatography-coupled mass spectrometry (LC–MS)
Conditions: 2 µM
Note: call rule not given here.

SMILES | Bacterial Biotransformation
COCCc1ccc(OCC(O)CNC(C)C)cc1.COCCc1ccc(OCC(O)CNC(C)C)cc1.O=C(O)C(O)C(O)C(=O)O (stereo not given) [METOPROLOL TARTRATE] | Compound NOT metabolized

Test: as §1, with “Z-002” for “Z-001”, “rabbit” for “mouse”, “ERS12561802” for “ERS12561801”
Conditions: 2 µM

SMILES | Bacterial Biotransformation
COCCc1ccc(OCC(O)CNC(C)C)cc1.COCCc1ccc(OCC(O)CNC(C)C)cc1.O=C(O)C(O)C(O)C(=O)O (stereo not given) [METOPROLOL TARTRATE] | Compound metabolized

Conditions: human gut metagenome, 24 h, 2 µM

SMILES | Bacterial Biotransformation
COCCc1ccc(OCC(O)CNC(C)C)cc1.COCCc1ccc(OCC(O)CNC(C)C)cc1.O=C(O)C(O)C(O)C(=O)O (stereo not given) [METOPROLOL TARTRATE] | Compound metabolized

Test: as §1, with “WLS-370” for “Z-001”, “human” for “mouse”, “ERS12561793” for “ERS12561801”
Conditions: 2 µM

SMILES | Bacterial Biotransformation
COCCc1ccc(OCC(O)CNC(C)C)cc1.COCCc1ccc(OCC(O)CNC(C)C)cc1.O=C(O)C(O)C(O)C(=O)O (stereo not given) [METOPROLOL TARTRATE] | Compound metabolized

Conditions: human gut metagenome, 24 h, 2 µM
Remark: another data set of the same source

SMILES | Bacterial Biotransformation
COCCc1ccc(OCC(O)CNC(C)C)cc1.COCCc1ccc(OCC(O)CNC(C)C)cc1.O=C(O)C(O)C(O)C(=O)O (stereo not given) [METOPROLOL TARTRATE] | Compound metabolized

Conditions: human gut metagenome, 24 h, 2 µM
Remark: another data set of the same source

SMILES | Bacterial Biotransformation
COCCc1ccc(OCC(O)CNC(C)C)cc1.COCCc1ccc(OCC(O)CNC(C)C)cc1.O=C(O)C(O)C(O)C(=O)O (stereo not given) [METOPROLOL TARTRATE] | Compound metabolized

Conditions: human gut metagenome, 24 h, 2 µM
Remark: another data set of the same source

SMILES | Bacterial Biotransformation
COCCc1ccc(OCC(O)CNC(C)C)cc1.COCCc1ccc(OCC(O)CNC(C)C)cc1.O=C(O)C(O)C(O)C(=O)O (stereo not given) [METOPROLOL TARTRATE] | Compound metabolized

Conditions: human gut metagenome, 24 h, 2 µM
Remark: another data set of the same source

SMILES | Bacterial Biotransformation
COCCc1ccc(OCC(O)CNC(C)C)cc1.COCCc1ccc(OCC(O)CNC(C)C)cc1.O=C(O)C(O)C(O)C(=O)O (stereo not given) [METOPROLOL TARTRATE] | Compound NOT metabolized

Test: as §1, with “Z-020” for “Z-001”, “rabbit” for “mouse”, “ERS12561819” for “ERS12561801”
Conditions: 2 µM

SMILES | Bacterial Biotransformation
COCCc1ccc(OCC(O)CNC(C)C)cc1.COCCc1ccc(OCC(O)CNC(C)C)cc1.O=C(O)C(O)C(O)C(=O)O (stereo not given) [METOPROLOL TARTRATE] | Compound NOT metabolized

Test: as §1, with “Z-030” for “Z-001”, “ERS12561829” for “ERS12561801”
Conditions: 2 µM

SMILES | Bacterial Biotransformation
COCCc1ccc(OCC(O)CNC(C)C)cc1.COCCc1ccc(OCC(O)CNC(C)C)cc1.O=C(O)C(O)C(O)C(=O)O (stereo not given) [METOPROLOL TARTRATE] | Compound NOT metabolized

Test: as §1, with “Z-026” for “Z-001”, “to” for “to mouse gut”, “ERS12561825” for “ERS12561801”
Conditions: 2 µM

SMILES | Bacterial Biotransformation
COCCc1ccc(OCC(O)CNC(C)C)cc1.COCCc1ccc(OCC(O)CNC(C)C)cc1.O=C(O)C(O)C(O)C(=O)O (stereo not given) [METOPROLOL TARTRATE] | Compound NOT metabolized

Conditions: human gut metagenome, 24 h, 2 µM
Remark: another data set of the same source

SMILES | Bacterial Biotransformation
COCCc1ccc(OCC(O)CNC(C)C)cc1.COCCc1ccc(OCC(O)CNC(C)C)cc1.O=C(O)C(O)C(O)C(=O)O (stereo not given) [METOPROLOL TARTRATE] | Compound NOT metabolized

Test: as §1, with “Z-028” for “Z-001”, “ERS12561827” for “ERS12561801”
Conditions: 2 µM

SMILES | Bacterial Biotransformation
COCCc1ccc(OCC(O)CNC(C)C)cc1.COCCc1ccc(OCC(O)CNC(C)C)cc1.O=C(O)C(O)C(O)C(=O)O (stereo not given) [METOPROLOL TARTRATE] | Compound NOT metabolized

Conditions: human gut metagenome, 24 h, 2 µM
Remark: another data set of the same source

SMILES | Bacterial Biotransformation
COCCc1ccc(OCC(O)CNC(C)C)cc1.COCCc1ccc(OCC(O)CNC(C)C)cc1.O=C(O)C(O)C(O)C(=O)O (stereo not given) [METOPROLOL TARTRATE] | Compound metabolized

Test: as §1, with “Z-027” for “Z-001”, “to” for “to mouse gut”, “ERS12561826” for “ERS12561801”
Conditions: 2 µM

SMILES | Bacterial Biotransformation
COCCc1ccc(OCC(O)CNC(C)C)cc1.COCCc1ccc(OCC(O)CNC(C)C)cc1.O=C(O)C(O)C(O)C(=O)O (stereo not given) [METOPROLOL TARTRATE] | Compound NOT metabolized

Test: as §1, with “WLS-170” for “Z-001”, “human” for “mouse”, “ERS12561762” for “ERS12561801”
Conditions: 2 µM

SMILES | Bacterial Biotransformation
COCCc1ccc(OCC(O)CNC(C)C)cc1.COCCc1ccc(OCC(O)CNC(C)C)cc1.O=C(O)C(O)C(O)C(=O)O (stereo not given) [METOPROLOL TARTRATE] | Compound metabolized

Test: as §1, with “Z-010” for “Z-001”, “to” for “to mouse gut”, “ERS12561810” for “ERS12561801”
Conditions: 2 µM

SMILES | Bacterial Biotransformation
COCCc1ccc(OCC(O)CNC(C)C)cc1.COCCc1ccc(OCC(O)CNC(C)C)cc1.O=C(O)C(O)C(O)C(=O)O (stereo not given) [METOPROLOL TARTRATE] | Compound metabolized

Test: as §1, with “Z-024” for “Z-001”, “pig” for “mouse”, “ERS12561823” for “ERS12561801”
Conditions: 2 µM

SMILES | Bacterial Biotransformation
COCCc1ccc(OCC(O)CNC(C)C)cc1.COCCc1ccc(OCC(O)CNC(C)C)cc1.O=C(O)C(O)C(O)C(=O)O (stereo not given) [METOPROLOL TARTRATE] | Compound NOT metabolized

Test: as §1, with “WLS-090” for “Z-001”, “human” for “mouse”, “ERS12561753” for “ERS12561801”
Conditions: 2 µM

SMILES | Bacterial Biotransformation
COCCc1ccc(OCC(O)CNC(C)C)cc1.COCCc1ccc(OCC(O)CNC(C)C)cc1.O=C(O)C(O)C(O)C(=O)O (stereo not given) [METOPROLOL TARTRATE] | Compound metabolized

Test: as §1, with “Z-004” for “Z-001”, “to” for “to mouse gut”, “ERS12561804” for “ERS12561801”
Conditions: 2 µM

SMILES | Bacterial Biotransformation
COCCc1ccc(OCC(O)CNC(C)C)cc1.COCCc1ccc(OCC(O)CNC(C)C)cc1.O=C(O)C(O)C(O)C(=O)O (stereo not given) [METOPROLOL TARTRATE] | Compound NOT metabolized
